Measurements taken from patent publication US10526327B2, “Histone demethylase inhibitors” (CELGENE QUANTICEL RESEARCH, INC., priority 2013, dated 2020).

Target: T1, Jarid1A (Homo sapiens, UniProt P29375)
T1 construct: purchased BPS Bioscience 50110
T1 sequence (P29375 1-1090): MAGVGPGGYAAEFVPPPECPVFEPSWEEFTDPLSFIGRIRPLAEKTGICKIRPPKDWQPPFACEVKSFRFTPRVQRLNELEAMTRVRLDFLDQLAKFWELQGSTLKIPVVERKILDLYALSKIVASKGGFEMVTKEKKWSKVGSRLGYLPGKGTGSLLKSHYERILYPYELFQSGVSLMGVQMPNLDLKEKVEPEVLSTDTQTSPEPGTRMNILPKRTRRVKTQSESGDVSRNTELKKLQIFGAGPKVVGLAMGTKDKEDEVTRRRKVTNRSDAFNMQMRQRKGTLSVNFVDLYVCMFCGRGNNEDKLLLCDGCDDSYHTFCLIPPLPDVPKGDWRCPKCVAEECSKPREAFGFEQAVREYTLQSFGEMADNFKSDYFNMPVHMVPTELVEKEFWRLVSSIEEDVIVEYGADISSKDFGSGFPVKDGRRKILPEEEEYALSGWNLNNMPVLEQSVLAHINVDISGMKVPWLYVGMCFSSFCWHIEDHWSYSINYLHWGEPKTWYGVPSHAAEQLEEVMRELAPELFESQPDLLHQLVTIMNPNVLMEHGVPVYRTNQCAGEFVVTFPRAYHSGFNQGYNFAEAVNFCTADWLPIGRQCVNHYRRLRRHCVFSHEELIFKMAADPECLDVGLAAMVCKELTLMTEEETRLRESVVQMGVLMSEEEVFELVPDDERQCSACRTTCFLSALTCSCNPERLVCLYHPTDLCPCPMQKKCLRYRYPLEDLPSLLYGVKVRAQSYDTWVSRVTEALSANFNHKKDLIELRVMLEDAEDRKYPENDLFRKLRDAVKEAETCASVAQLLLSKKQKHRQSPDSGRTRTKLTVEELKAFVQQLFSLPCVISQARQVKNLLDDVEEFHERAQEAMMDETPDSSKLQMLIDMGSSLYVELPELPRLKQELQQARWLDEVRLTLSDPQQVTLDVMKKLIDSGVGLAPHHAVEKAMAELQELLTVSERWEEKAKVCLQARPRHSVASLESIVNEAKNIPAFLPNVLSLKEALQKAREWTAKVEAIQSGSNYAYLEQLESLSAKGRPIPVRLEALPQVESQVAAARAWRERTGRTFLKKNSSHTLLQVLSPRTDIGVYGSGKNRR
Test: Jarid1A in vitro enzyme inhibition assay (TR-FRET)
Type: biochemical
Procedure, shortened: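 Demethylation of 300 nM biotin-H3K4me3 peptide by 1 nM baculovirus-expressed Jarid1A (aa 1–1090) with 2 μM α-ketoglutarate, Fe(II) and ascorbate, pH 7.3, 30 min at room temperature. Stopped with EDTA; H3K4me1-2 product detected by TR-FRET (Eu anti-H3K4me1-2/streptavidin-APC). IC50 fitted from 665/615 ratio over 11-point dilutions.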

Row | SMILES | IC50 [nM]
1 | Oc1nc(Oc2cnn([C@@H]3CCN(Cc4ccccc4)C3)c2)nc2cnccc12 [Example 133, 2-({1-[(3R)-1-benzylpyrrolidin-3-yl]-1H-pyrazol-4-yl}oxy)pyrido[3,4-d]pyrimidin-4-ol] | ≤ 100
2 | Oc1nc(Oc2cnn(C3CCN(Cc4ccccc4)CC3)c2)nc2cnccc12 [Example 123, 2-{[1-(1-benzylpiperidin-4-yl)-1H-pyrazol-4-yl]oxy}pyrido[3,4-d]pyrimidin-4-ol] | ≤ 100
3 | CC(=O)N1CCC[C@@H](n2cc(Oc3nc(O)c4ccncc4n3)cn2)C1 [Example 153, 1-[(3R)-3-[4-({4-hydroxypyrido[3,4-d]pyrimidin-2-yl}oxy)-1H-pyrazol-1-yl]piperidin-1-yl]ethan-1-one] | ≤ 100
4 | N#CCC(=O)N1CC[C@H](n2cc(Oc3nc(O)c4ccncc4n3)cn2)C1 [Example 140, 3-[(3S)-3-[4-({4-hydroxypyrido[3,4-d]pyrimidin-2-yl}oxy)-1H-pyrazol-1-yl]pyrrolidin-1-yl]-3-oxopropanenitrile] | ≤ 100
5 | Oc1nc(Oc2cnn([C@@H]3CCCN(c4ccc(F)cc4)C3)c2)nc2cnccc12 [Example 159, 2-({1-[(3R)-1-(4-fluorophenyl)piperidin-3-yl]-1H-pyrazol-4-yl}oxy)pyrido[3,4-d]pyrimidin-4-ol] | ≤ 100
6 | O=C(C1CCNCC1)N1CC[C@H](n2cc(Oc3nc(O)c4ccncc4n3)cn2)C1 [Example 143, 2-({1-[(3S)-1-(piperidine-4-carbonyl)pyrrolidin-3-yl]-1H-pyrazol-4-yl}oxy)pyrido[3,4-d]pyrimidin-4-ol] | ≤ 100
7 | Cn1cnc(-c2nccc3c(O)nc(O[C@H](c4ccccc4)C(F)(F)F)nc23)c1 [Example 108, 8-(1-methyl-1H-imidazol-4-yl)-2-[(1R)-2,2,2-trifluoro-1-phenylethoxy]pyrido[3,4-d]pyrimidin-4-ol] | 1000 to 10000
8 | Oc1nc(Oc2cnn([C@H]3CCCN(Cc4ccccc4)C3)c2)nc2cnccc12 [Example 168, 2-({1-[(3S)-1-benzylpiperidin-3-yl]-1H-pyrazol-4-yl}oxy)pyrido[3,4-d]pyrimidin-4-ol] | ≤ 100
9 | Cn1cnc(-c2nccc3c(O)nc(O[C@@H](c4ccccc4)C(F)(F)F)nc23)c1 [Example 109, 8-(1-methyl-1H-imidazol-4-yl)-2-[(1S)-2,2,2-trifluoro-1-phenylethoxy]pyrido[3,4-d]pyrimidin-4-ol] | 1000 to 10000
10 | O=S(=O)(C1CC1)N1CC[C@@H](n2cc(Oc3nc(O)c4ccncc4n3)cn2)C1 [Example 127, 2-({1-[(3R)-1-(cyclopropanesulfonyl)pyrrolidin-3-yl]-1H-pyrazol-4-yl}oxy)pyrido[3,4-d]pyrimidin-4-ol] | ≤ 100
